Experimental data as given in paper PMC10424673 (Journal of Medicinal Chemistry, 2023).
One block for each compound: values may come before it. Where a SMILES comes first, the peptide text is derived from it. [ ]: non-standard residue; d: D form. The star is where a group is joined. NHNH2 = NN*

What was measured:
proteinase K = proteinase K (Parengyodontium album, UniProt P06873); details: 20 μM peptide, ProtK 100 μg/mL, 10 mM Tris-base, 10 mM NaCl, pH 7.4, 5 μM CaCl2, 37 °C, SDS-PAGE Coomassie densitometry normalised to T0, repeated three times
DPP-IV = DPP-IV (Homo sapiens, UniProt P27487); details: 20 μM peptide, DPP-IV 50 μg/mL, 100 mM Tris pH 8.0, 2.5 h, SDS-PAGE densitometry and mass spectrometry
hGLP-2R = biological target: T1, hGLP-2R (Homo sapiens, UniProt O95838); test: HTRF cAMP assay in GLP-2R-expressing HEK293 cells; type: cell-based
T1 construct: expressed in transfected cells
T1 sequence (O95838 1-553): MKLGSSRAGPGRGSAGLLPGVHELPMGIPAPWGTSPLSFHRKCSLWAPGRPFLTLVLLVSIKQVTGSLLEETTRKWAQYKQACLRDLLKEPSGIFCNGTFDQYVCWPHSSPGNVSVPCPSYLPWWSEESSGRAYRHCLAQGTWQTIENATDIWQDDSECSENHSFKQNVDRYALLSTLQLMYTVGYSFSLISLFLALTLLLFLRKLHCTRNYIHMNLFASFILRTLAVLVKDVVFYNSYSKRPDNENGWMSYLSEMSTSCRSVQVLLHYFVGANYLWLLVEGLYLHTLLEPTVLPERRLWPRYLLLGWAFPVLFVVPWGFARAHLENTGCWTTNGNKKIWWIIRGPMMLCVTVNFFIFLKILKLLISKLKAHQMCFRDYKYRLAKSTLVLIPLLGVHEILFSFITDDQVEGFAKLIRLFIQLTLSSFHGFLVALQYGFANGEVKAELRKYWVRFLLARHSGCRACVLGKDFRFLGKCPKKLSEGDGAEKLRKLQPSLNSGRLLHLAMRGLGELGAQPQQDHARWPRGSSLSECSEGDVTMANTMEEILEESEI

GLP-2R [1] = biological target: T2, GLP-2R (Homo sapiens, UniProt O95838); parameters: method as in 2 sources, one per row (each row's own in cited_ref): ref 28 (Gadgaard et al.) ||| ref 28 = [28]; PMID 36780786; doi:10.1016/j.biopha.2023.114383; Gadgaard S.; Windeløv J. A.; Schiellerup S. P.; Holst J. J.; Hartmann B.; Rosenkilde M. M. Long-Acting Agonists of Human and Rodent Glp-2 Receptors for Studies of the Physiology and Pharmacologic; details: cited from earlier work
T2 construct: host or cells: CHO-K1 PathHunter reporter cells

GLP-2R [2] = biological target: T2, GLP-2R; parameters: method as in PMID 36780786; details: cited from earlier work
[3] = system: GFP under CREB in HEK293 cells stably expressing hGLP-2R; test: Western blot of GFP expression under control of CREB in HEK293 cells stably expressing hGLP-2R; type: cell-based, human; details: 10 μM peptide, after 36 hours of incubation, mean ± sd, n = 3
Description: We then investigated the downstream effects of stimulating GLP-2R with the D-GLP-2 analogues to study the D-peptide designs’ effects on GLP-2R. We wanted to determine whether activating GLP-2R with D-GLP-2 analogues would promote GFP expression in HEK293 cells containing a GFP gene under the control of cAMP response element binding protein (CREB) and AKT phosphorylation. We also checked the beta-actin expression in all the treatments as loading controls. Of relevance, all peptides induced a similar GFP expression under the CREB, reaching saturation between 24 and 48 h of incubation (Figures 5E,F, S1A, Table S3). We also found a concentration-dependent increase in GFP expression in response to all the peptides’ stimulation (Figure S1B).
The cells were lysed with a lysis buffer 50 mM Tris-HCl pH 7.4, 1% Nonidet P-40, 150 mM NaCl, 1 mM ethylenediaminetetraacetic acid, 10 mM Na3VO4, 10 mM sodium pyrophosphate, and 25 mM NaF, 1× protease inhibitor mixture (Sigma) for 30 min at 4 °C. […] The transferred samples were immunoblotted with primary antibodies, followed by incubation with horseradish peroxidase-conjugated secondary antibodies (Santa Cruz Biotechnology) and detected using enhanced chemiluminescence (GE Healthcare).

T2 sequence (P32121 whole entry partner, one chain of several): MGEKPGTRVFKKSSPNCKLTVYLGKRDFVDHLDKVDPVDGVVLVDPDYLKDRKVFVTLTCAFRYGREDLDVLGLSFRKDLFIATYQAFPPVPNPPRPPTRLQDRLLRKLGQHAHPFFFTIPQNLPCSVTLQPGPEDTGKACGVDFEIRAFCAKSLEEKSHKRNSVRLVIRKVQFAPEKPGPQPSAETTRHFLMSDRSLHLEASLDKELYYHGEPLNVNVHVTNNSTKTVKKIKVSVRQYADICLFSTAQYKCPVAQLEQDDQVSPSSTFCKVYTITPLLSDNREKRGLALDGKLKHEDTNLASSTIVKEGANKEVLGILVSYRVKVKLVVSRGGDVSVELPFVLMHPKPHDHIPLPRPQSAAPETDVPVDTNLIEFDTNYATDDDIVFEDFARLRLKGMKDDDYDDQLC
Sequence of proteinase K (P06873 106-384): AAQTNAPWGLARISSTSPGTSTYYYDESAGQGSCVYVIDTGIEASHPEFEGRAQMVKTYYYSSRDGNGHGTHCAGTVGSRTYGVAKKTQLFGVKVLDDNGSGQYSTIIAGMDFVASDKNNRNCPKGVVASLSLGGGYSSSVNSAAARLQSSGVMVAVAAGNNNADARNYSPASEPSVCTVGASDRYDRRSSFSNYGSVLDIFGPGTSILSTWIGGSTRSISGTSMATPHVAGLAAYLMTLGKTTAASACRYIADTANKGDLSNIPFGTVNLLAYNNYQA
Sequence of DPP-IV (P27487 whole entry, species assumed): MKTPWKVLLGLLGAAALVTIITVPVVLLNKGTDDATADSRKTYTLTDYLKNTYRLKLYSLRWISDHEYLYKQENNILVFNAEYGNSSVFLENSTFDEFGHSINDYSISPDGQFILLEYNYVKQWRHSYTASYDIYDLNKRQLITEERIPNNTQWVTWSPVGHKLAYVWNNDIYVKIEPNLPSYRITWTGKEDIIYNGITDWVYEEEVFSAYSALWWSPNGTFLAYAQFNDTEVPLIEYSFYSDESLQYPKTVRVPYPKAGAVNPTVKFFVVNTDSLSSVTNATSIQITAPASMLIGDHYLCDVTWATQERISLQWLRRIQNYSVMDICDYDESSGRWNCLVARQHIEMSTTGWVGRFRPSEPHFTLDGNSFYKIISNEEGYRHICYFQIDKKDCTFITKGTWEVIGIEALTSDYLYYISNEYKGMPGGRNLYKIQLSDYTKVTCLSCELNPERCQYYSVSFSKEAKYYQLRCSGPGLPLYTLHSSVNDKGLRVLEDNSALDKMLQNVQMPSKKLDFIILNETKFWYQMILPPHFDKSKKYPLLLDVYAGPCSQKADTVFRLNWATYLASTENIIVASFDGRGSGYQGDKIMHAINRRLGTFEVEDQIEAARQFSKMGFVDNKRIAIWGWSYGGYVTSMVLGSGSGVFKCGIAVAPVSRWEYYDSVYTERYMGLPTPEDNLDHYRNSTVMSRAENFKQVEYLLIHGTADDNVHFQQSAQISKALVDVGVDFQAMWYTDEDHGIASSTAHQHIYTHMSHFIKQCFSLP

peptide remaining after proteinase K exposure, 2 h (proteinase K): almost complete loss | peptide remaining after incubation with DPP-IV (DPP-IV): remained intact
Compound: CC[C@H](C)[C@H](NC(=O)[C@H](Cc1ccccc1)NC(=O)[C@H](CC(=O)O)NC(=O)[C@H](CCCNC(=N)N)NC(=O)[C@H](C)NC(=O)[C@H](C)NC(=O)[C@H](CC(C)C)NC(=O)[C@H](CC(N)=O)NC(=O)[C@H](CC(=O)O)NC(=O)[C@H](CC(C)C)NC(=O)[C@@H](NC(=O)[C@@H](NC(=O)[C@H](CC(N)=O)NC(=O)[C@H](CCSC)NC(=O)[C@H](CCC(=O)O)NC(=O)[C@H](CC(=O)O)NC(=O)[C@H](CO)NC(=O)[C@H](Cc1ccccc1)NC(=O)[C@H](CO)NC(=O)CNC(=O)[C@H](CC(=O)O)NC(=O)CNC(=O)[C@@H](N)Cc1c[nH]cn1)[C@@H](C)O)[C@@H](C)CC)C(=O)N[C@@H](CC(N)=O)C(=O)N[C@@H](Cc1c[nH]c2ccccc12)C(=O)N[C@@H](CC(C)C)C(=O)N[C@H](C(=O)N[C@@H](CCC(N)=O)C(=O)N[C@H](C(=O)N[C@@H](CCCCN)C(=O)N[C@H](C(=O)N[C@H](C(=O)N[C@@H](CC(=O)O)C(=O)O)[C@@H](C)O)[C@@H](C)CC)[C@@H](C)O)[C@@H](C)CC [L-GLP-2-2G]

Compound: CC[C@@H](C)[C@@H](NC(C)=O)C(=O)N[C@H](CCCCN)C(=O)N[C@H](C)C(=O)N[C@H](CCC(N)=O)C(=O)N[C@H](Cc1c[nH]c2ccccc12)C(=O)N[C@H](CC(C)C)C(=O)N[C@H](C)C(=O)N[C@H](C)C(=O)N[C@H](CCC(=O)O)C(=O)N[C@H](Cc1ccccc1)C(=O)N[C@@H](C(=O)N[C@H](CCC(N)=O)C(=O)N[C@H](C)C(=O)N[C@@H](C(=O)N[C@H](C)C(=O)N[C@H](C)C(=O)N[C@@H](C(=O)N[C@H](CC(C)C)C(=O)N[C@H](C)C(=O)N[C@H](CCSC)C(=O)N[C@H](CC(C)C)C(=O)N[C@H](CCCNC(=N)N)C(=O)N[C@H](CC(N)=O)C(=O)N[C@H](CC(N)=O)C(=O)N[C@H](CCC(N)=O)C(=O)N[C@H](Cc1ccccc1)C(=O)N[C@H](CCC(=O)O)C(=O)N[C@H](Cc1ccccc1)C(=O)N[C@H](C)C(=O)NCC(=O)N[C@@H](C(=O)N[C@H](CCC(=O)O)C(=O)N[C@H](Cc1c[nH]cn1)C(N)=O)C(C)C)C(C)C)C(C)C)[C@H](C)CC [D-GLP-2] (Ac-[dI][dK][dA][dQ][dW][dL][dA][dA][dE][dF][dI][dQ][dA][dV][dA][dA][dV][dL][dA][dM][dL][dR][dN][dN][dQ][dF][dE][dF][dA]G[dV][dE][dH]-NH2)
EC50 (hGLP-2R): 1.42 µM | times less potent (weaker EC50) than native L-GLP-2 (hGLP-2R; ratio of cAMP EC50 to that of GLP-2): 35 times

Compound: GLP-2_3–33: the product of DPP-IV inactivation of GLP-2_1–33 (DGSFSDEMNTILDNLAARDFINWLIQTKITD; Glucagon-like peptide 2; UniProt P01275 148-178, looked up, fragment)
mode of action at GLP-2R (GLP-2R [1]): competitive antagonist of GLP-2_1–33 | efficacy at GLP-2R (GLP-2R [1]; ref 28 (Gadgaard et al.)): 11% | β-arrestin 1 and 2 recruitment (GLP-2R [2]): could not recruit β-arrestin 1 and 2

Compound: CC[C@@H](C)[C@@H](NC(C)=O)C(=O)N[C@H](CCCCN)C(=O)N[C@H](C)C(=O)N[C@H](CCC(N)=O)C(=O)N[C@H](Cc1c[nH]c2ccccc12)C(=O)N[C@H](CC(C)C)C(=O)N[C@H](C)C(=O)N[C@H](C)C(=O)N[C@H](CCC(=O)O)C(=O)N[C@H](Cc1ccccc1)C(=O)N[C@@H](C(=O)N[C@H](CCC(N)=O)C(=O)N[C@H](C)C(=O)N[C@@H](C(=O)N[C@H](C)C(=O)N[C@H](C)C(=O)N[C@@H](C(=O)N[C@H](CC(C)C)C(=O)N[C@H](C)C(=O)N[C@H](CCSC)C(=O)N[C@H](CC(C)C)C(=O)N[C@H](CCCNC(=N)N)C(=O)N[C@H](CC(N)=O)C(=O)N[C@H](CC(N)=O)C(=O)N[C@H](CCC(N)=O)C(=O)N[C@H](Cc1ccccc1)C(=O)N[C@H](CCC(=O)O)C(=O)N[C@H](Cc1ccccc1)C(=O)N[C@H](C)C(=O)NCC(=O)N[C@@H](C(=O)N[C@H](C)C(=O)N[C@H](Cc1c[nH]cn1)C(=O)NN)C(C)C)C(C)C)C(C)C)[C@H](C)CC [D-GLP-2 E33A hydrazide] (Ac-[dI][dK][dA][dQ][dW][dL][dA][dA][dE][dF][dI][dQ][dA][dV][dA][dA][dV][dL][dA][dM][dL][dR][dN][dN][dQ][dF][dE][dF][dA]G[dV][dA][dH]-NHNH2)
GFP relative expression level, relative to L-GLP-2-treated cells [3]: 1.08 ± 0.14 | EC50 (hGLP-2R): 0.226 µM | improvement of GLP-2R activation compared to D-GLP-2 (hGLP-2R; ratio of cAMP EC50 values, compared to D-GLP-2): 6.26 fold
